Reference: US20060014704A1, “Compounds and their preparation for the treatment of Alzheimer's disease by inhibiting beta-amyloid peptide production” (priority 2004, published 2006)
Entries after “also recorded” stand apart in the source; their conditions may differ.

Assays:
[1] = system: full-length APP and APP C-terminal fragments, CHO-APP cells; test: Western blot analysis of APP processing in CHO-APP cells; assay type: cell-based, Chinese hamster; conditions: cell lysates
Excerpt: FIG. 13. depicts an analysis of APP processing after Rk1 treatment. Steady-state levels of full-length APP and APP C-terminal fragments (APP-CTFs) were examined by Western blot analysis using anti-R1 antibody. […] Correlated Aβ42 levels for each sample are shown in the bottom panel.

[2] = target: T1, γ-secretase cleavage of Notch1 (NICD) (Homo sapiens, UniProt P49768); test: Cell-free generation of NICD from membrane fractions of 293 cells overexpressing Notch-AE; assay type: biochemical
T1 construct: Membrane fractions isolated from 293 cells overexpressing either APP (A), Notch-AE (B) or p75-AE (C); endogenous in cells; host or cells: 293 cells (membrane fractions); only the substrates APP, Notch-ΔE and p75-ΔE are overexpressed
Protocol: Membrane fractions isolated from 293 cells overexpressing either APP (A), Notch-AE (B) or p75-AE (C) and incubated in the presence of indicated compounds: Compound E (CpdE, general γ-secretase inhibitor), Rgk351, Rk1 and sulindac sulfide (SS).

[3] = system: Aβ species, CHO-APP cells; test: Mass spectrometric analysis of Aβ species produced from CHO-APP cells; assay type: cell-based, Chinese hamster; conditions: mass spectrometry, vs DMSO
Protocol: Note that treatment leads to a decrease in Aβ42 species (1-42), and elevation in both Aβ37 (1-37) and Aβ38 (1-38). Mass spectrometric analysis of Aβ species were performed as previously described (Wang R, Sweeny D, Gandy S E, Sisodia S S. The profile of soluble amyloid β-protein in cultured cell media. J. Bio. Chem. 1996; 271: 31894-31902).

[4] = system: Aβ40 and Aβ42 secretion, primary embryonic cortical neurons; test: Aβ secretion in primary embryonic cortical neurons derived from Tg2576 transgenic mice; assay type: cell-based, mouse
Excerpt: Treatment of Rk1 and Rg3 decreased the level of secreted Aβ40 and Aβ42.

[5] = system: Aβ42 production in mammalian cells; conditions: Tae-Wan Kim et al., cited from earlier work
[6] = target: γ-secretase complex (Homo sapiens, UniProt P49768); conditions: partially purified γ-secretase complex; cited from earlier work

Compound: C=C(CCC=C(C)C)[C@H]1CC[C@]2(C)[C@@H]1[C@H](O)C[C@@H]1[C@@]3(C)CC[C@H](O[C@@H]4O[C@H](CO)[C@@H](O)[C@H](O)[C@H]4O[C@@H]4O[C@H](CO)[C@@H](O)[C@H](O)[C@H]4O)C(C)(C)[C@@H]3CC[C@]12C [Rk1]
- APP C-terminal fragments (γ-secretase substrates), steady-state levels [1]: increased accumulation; also recorded: up-regulated
- full-length APP levels [1]: not affected; also recorded: did not affect
- cell-free generation of NICD [2]: does not significantly affect; also recorded: not affected
- Aβ37 (1-37) [3]: elevation
- Aβ38 (1-38) [3]: elevation
- Aβ42 species (1-42) [3]: decrease
- level of secreted Aβ40 [4]: decreased
- level of secreted Aβ42 [4]: decreased
- production of Aβ42 in mammalian cells ([5]; patent application pending): lower the production of Aβ42
- relative effectiveness in reducing Aβ42 levels [5]: most effective
- Aβ42 production in a cell-free assay [6]: inhibit the Aβ42 production
